One may read the melting point as the temperature of the solid-liquid transition.

The source of these data is a melting point compilation (Tetko et al.; mined from patent text by program, amines drawn as free bases though some values may be those of a salt).

SMILES strings stand for the structures. Residues, ends and D or L forms follow the SMILES beside them. *: point of attachment. Tos = Cc1ccc(S(=O)(=O)*)cc1 Bounds are passed on as bounds.

Regarding `CCCC(=O)Nc1ccc2[nH]c(C(=O)O)cc2c1`, the melting point is 210 °C.

`Cc1ccc(S(=O)(=O)N2CCC[C@H]2C(=O)N[C@@H](CCC(=O)O)C(=O)O)cc1` (Tos-Pro-Glu-OH) came in with a melting point of 164 to 166 °C.

`COc1ccc(CC(=O)Nc2ccc3sc(C)nc3c2Cl)cc1` displayed a melting point of 173 to 174 °C.

Turning to `OC(=S)CCCCCCn1c(-c2ccccc2)nc(-c2ccccc2)c1-c1ccccc1`, the melting point lay in the range of 166 to 169 °C.

In turn, `Cc1ccc(NC(=N)c2ccccn2)cc1C` had a melting point of 105 to 107 °C.

`O=C1C=CC(Cl)(C(=O)OC(c2ccccc2)c2ccccc2)O1` (stereo unspecified): the melting point was 99 to 101 °C.

In the case of `COc1cccc2c1C=C(C#N)CC2`, the melting point lay within 66 to 68 °C.

Turning to `CCS(=O)(=O)Nc1nc(CCCN2CCN(C(c3ccccc3)c3ccccc3)CC2)cs1`, the melting point lay in the range of 162 to 164 °C.

`COc1ccc([C@@H]2Sc3cc(Oc4ccc(F)cc4)ccc3NC(=O)[C@@H]2O)cc1F` came in with a melting point of 222 to 224 °C.

In turn, `CN[C@H]1CCN(c2c(F)cc3c(=O)n(NC)c(=O)n(C4CC4)c3c2Cl)C1` displayed a melting point of 77 to 79 °C.

Take `CC=CCn1c(CC)c(C)c2cnnc(OCc3ccc(F)cc3)c21`: the melting point is 74 to 76 °C.

For `O=C(O)C1=CCCN1C(=O)CCSSCCC(=O)N1CCC=C1C(=O)O`, the melting point was in the range of 158 to 160 °C.

`O=c1c2ccc(O)cc2oc2c([N+](=O)[O-])ccc(Cl)c12` yielded a melting point of 179 to 182 °C.

In turn, `CC(C)NC(=S)NC(=O)c1ccc(C#N)cc1` had a melting point of 156 to 157 °C.

As to `COc1ccc(Nc2nc3cc4c(cc3[nH]2)NC(=O)C4(C)C)cc1`, the melting point was 286 to 288 °C.

`Cc1ccc(S(=O)(=O)Nc2nc(-c3ccc(Cl)c(Cl)c3)cs2)cc1` returned a melting point of 205 to 206 °C.

`Cc1sc(-c2ccco2)nc1COc1ccc(CCl)cc1` displayed a melting point of 115 to 116 °C.

In turn, `OC(c1ccccc1)(c1cccc(Cl)c1)c1ncc[nH]1` (stereo unspecified) displayed a melting point of 174 to 175 °C.

`COC(=O)[C@H](Cc1cccc(Br)c1)NC(=O)OC(C)(C)C`: the melting point lay within 60 to 61 °C.

With `Cc1ccc(C(=O)NCC(C)O)cc1C` (stereo unspecified), the melting point fell in the range of 77 to 78 °C.

Consider `OP(O)C(NC(c1ccccc1)c1ccccc1)c1cccnc1` (stereo unspecified), for which the melting point is 129 to 132 °C.

As to `Cc1cc(Oc2c(Cl)cc(C(F)(F)F)cc2Cl)nn1C(=O)NCC(F)(F)F`, the melting point fell in the range of 104 to 106 °C.

With `CN1C(=O)CCC2(C)C3CCC4(C)C(OCC(N)=O)CCC4C3CCC12` (stereo unspecified), the melting point fell in the range of 222 to 225 °C.

Compound `CN(C)c1cccc(C(=C2CN(C(c3ccccc3)c3ccccc3)C2)S(C)(=O)=O)c1` registered a melting point of 176 °C.

Compound `CCn1c(=O)sc2cc(N3C[C@H](C(=O)NC)OC3=O)ccc21` yielded a melting point of 227 to 229 °C.

Compound `CN1C(=O)CCN(c2ccc(Cl)cc2Cl)C1=O` yielded a melting point of 154 to 157 °C.

`COc1ccc(-c2nc(N3CCOCC3)c3c(C)c(C#N)sc3n2)cc1OC`: the melting point was 194 to 196 °C.

Take `N#CC[C@H](O)Cc1cc2ccccc2[nH]1`: the melting point lay within 92 to 93 °C.

Compound `CC1=C(C)c2cc(Br)ccc2Oc2ccccc21` came in with a melting point of 112 to 114 °C.

The compound `c1coc(-c2ccc3c(n2)[nH]c2ccccc23)c1` displayed a melting point of 208 to 210 °C.

`CCCCC(C(=O)OCC)=C(Nc1cccc(SC)c1)C(=O)OCC` showed a melting point of 55 °C.

As to `O=c1[nH]c2cc(Cl)cc(Cl)c2c(=O)n1Cc1ccccc1`, the melting point fell in the range of 260 to 265 °C.

`COc1cc2c3c(c1)-c1c(O)cccc1CC3N(C)CC2` (stereo unspecified) returned a melting point of 214 to 215 °C.

Consider `COc1ccc(C(=O)Nc2ccccc2)cc1NCc1ccc(F)cc1`, for which the melting point lay in the range of 165 to 167 °C.

Regarding `COCCOC1c2ccn3c(C)c(C)nc3c2NC(c2ccccc2)C1OC(=O)CCCCO[N+](=O)[O-]` (stereo unspecified), the melting point is 87.1 °C.

`Cc1cccc(C)c1CNc1cc(C(=O)N(C)C)nc2c(C)c(C)[nH]c12` returned a melting point of 315 °C.

Turning to `N#Cc1cc(C(F)(F)F)[nH]c1-c1ccc(Cl)c([N+](=O)[O-])c1`, the melting point is 258 to 260 °C.

Turning to `COC(=O)c1c(-c2ccc(F)cc2)c2c3ccccc3ccn2c1C(C)C`, the melting point lay within 170 to 173 °C.

Take `CC(C)C(C)(C#N)N1C(=O)c2ccc3ccsc3c2C1=O` (stereo unspecified): the melting point is 99 to 107 °C.

In turn, `CC1(C)c2c(ccc3cc(C(N)=O)c(Cn4cncn4)cc23)OC1O` (stereo unspecified) had a melting point of 223 to 225 °C.

In the case of `Cc1c(Cl)cc(C(C)C)c2oc(SCCN3CCN(CC(=O)Nc4c(C(C)C)cccc4C(C)C)CC3)nc12`, the melting point is 162 to 163 °C.

`OCCSP(=S)(C1CCCCC1)C1CCCCC1` gave a melting point of 82 to 84 °C.

Compound `Cc1noc(NS(=O)(=O)c2ccsc2C/C=C/c2ccc3c(c2)OCO3)c1Br` gave a melting point of 147 to 149 °C.

`CCOC(=O)c1c(CC)[nH]c(CC)c1C`: the melting point fell in the range of 101 to 103 °C.

Take `CN1CCC2(CC1)c1ccccc1Oc1c(O)cccc12`: the melting point fell in the range of 171 to 173 °C.

Compound `CC(C)[C@H]1NC(=O)[C@H]1N` (relative stereo) displayed a melting point of 91 to 93 °C.

`COc1ccc(/C=C(/C#N)c2c(F)cccc2F)cc1OC1CCCC1` gave a melting point of 79.1 to 81 °C.

Regarding `COCCOc1cccc(-c2cncc(C#N)c2Nc2ccc3[nH]ccc3c2C)c1`, the melting point lay in the range of 158 to 160 °C.

`CC(=O)CC(C)c1ccc(-c2ccccc2)cc1` (stereo unspecified) returned a melting point of 67 °C.

Compound `CC1(C)CC(N2C(=O)c3ccc(C(=O)O)cc3C2=O)CC(C)(C)N1` registered a melting point of over 225 °C.

Compound `C=Cc1cc(O)cc2nc(-c3ccc(OP(=O)(OCC)OCC)c(F)c3)oc12` came in with a melting point of 134 to 136 °C.

The compound `Nc1ccc(C(O)C(COc2ccccc2)N2CCC(Cc3ccccc3)CC2)cc1` (stereo unspecified) returned a melting point of 146 to 147 °C.

For the compound `CCCn1nc2c(N)nc3ccccc3c2c1CCCc1cc(-c2cccnc2)on1`, the melting point fell in the range of 196 to 198 °C.

The compound `CSc1cc(S(F)(F)(F)(F)F)ccc1C(=O)O` came in with a melting point of 150 to 152 °C.

In turn, `Cc1ccc(-c2ncncc2C#N)cc1` gave a melting point of 127 to 128 °C.

`Nc1cc(F)ccc1[N+](=O)[O-]` returned a melting point of 99 °C.

Consider `Cc1ccc(C(=O)NCCCn2ccnc2)c(Nc2ccc3cn[nH]c3c2)n1`, for which the melting point was in the range of 203 to 205 °C.

`O=C1COCCN1c1ccc(N2C[C@@H](CN(Cc3ccccc3)Cc3ccccc3)OC2=O)cc1` showed a melting point of 140 to 145 °C.

Compound `N#Cc1ccc(N(Cc2ccc(O)cc2)n2cncn2)cc1-c1ccccc1` gave a melting point of 169 to 170 °C.

Compound `CC1=C2C=c3c(cnn3CC(C)N=[N+]=[N-])=C2CC=C1` (racemic) showed a melting point of 70 to 72 °C.

`Cc1nc(N2CCc3ccccc3CC2)c(C#N)c(=O)n1N(C)C` came in with a melting point of 134 to 136 °C.

Take `NC(=O)c1c(-c2cccc(F)c2)c(Br)n2c1CNCC2`: the melting point was in the range of 216 to 218 °C.

In the case of `N#CC1=C(C2CC2)Nc2n[nH]cc2C1c1ccccc1Cl` (stereo unspecified), the melting point is over 250 °C.

With `CC#Cc1cc(C)nc(Nc2ccc(F)cc2)n1`, the melting point lay in the range of 138 to 140 °C.

`CC(C#N)NNC(N)=O` (stereo unspecified): the melting point lay in the range of 125 to 128 °C.

Turning to `O=c1ccc(-c2ccc(Cl)cc2)c[nH]1`, the melting point is 183 to 186 °C.
